Here are results for 17 molecules from patent publication US20240199561A1, “INHIBITORS OF DYRK AND PIM” (COLD SPRING HARBOR LABORATORY, priority 2021, published 2024).

Each structure is given as a SMILES string. Entries after “also recorded” stand apart in the source; their conditions may differ.

The target in one experiment is PIM1 (Homo sapiens (Human), UniProt P11309). Description: Kinase assay, PIM1 IC50. Format: biochemical.
Another experiment addresses DYRK1A (Homo sapiens (Human), UniProt Q13627). The experiment can be described thus: Radiolabelled kinase assay (IC50 determination), DYRK1A. The conditions noted are these: read-out: DYRK1A IC50 (nm).
In experiment [1] the test system is LN229. Description: Neurosphere proliferation assay, LN229. Format: cell-based. The conditions noted are these: LN229, serum free conditions with growth factors. As for the experimental part: (§1) Neurospheres are free-floating 3-D clusters of neural stem cells that are grown in serum-free media supplemented with growth factors. These cells have the capacity to self-renew and differentiate into cell types present within the tumor of origin. They are also responsible for tumor propagation, recurrence and resistance to traditional treatments. Neurosphere assays are commonly used to uncover more relevant brain tumor biology than traditional culture conditions. Several parameters can be assayed including neurosphere number and size. Neurosphere formation remained a significant predictor of clinical outcome in GBM, independent of the Ki67 labeling index. […] Self-renewal is the ability of a single cell to form a neurosphere.
(§2) Two EGFR-dependent GBM cell-lines, U87MG and LN229 were grown under serum free conditions with growth factors to induce the formation of neurospheres. Their stemness was confirmed using a western blot to detect stem cell markers. […] This reaffirmed the fact that DYRK1A plays a crucial role in regulating neurosphere self-renewal in GBM.

Experiment [2] has as its target DYRK1A point mutants (Homo sapiens, UniProt Q13627, F238L). The experiment can be described thus: In-vitro radiolabeled kinase assays against DYRK1A point mutants. In kind it is biochemical. The conditions noted are these: F238L. From the text: (§3) Kinase domains contain a gatekeeper residue that partially or fully blocks a hydrophobic region deep in the ATP binding pocket. The gatekeeper residue contributes to the selectivity of kinases for small molecule inhibitors. Based on the DYRK1A crystal structure with FC3 and sequence alignment, the gatekeeper residue in DYRK1A is Phe238 which is replaced by a smaller […] in case of PIM1 and other PIM kinases. Similarly, Met240, two residues after the gatekeeper residue was very unique to DYRK1A. Another interesting residue was Ser241 which was conserved among DYRKs. Point mutants of the gatekeeper residue (F238L), Met240 (M240R), […] and a double mutant (F238LM240R) were created to evaluate if the point mutants show resistance towards FC2 and FC3.
(§4) In-vitro radiolabeled kinase assays were used to determine the IC50s of FC2 and FC3 against the DYRK1A point mutants. There was no change in the Km or Vmax of the point mutants of DYRK1A and their activity was similar to wild-type DYRK1A.

The target of experiment [3] is DYRK1A point mutants (Homo sapiens, UniProt Q13627, S242A). Described as above. In kind it is biochemical. The conditions noted are these: S242A.
Text: as §3, §4

The target of experiment [4] is DYRK1A point mutants (Homo sapiens, UniProt Q13627, M240R). The description is as above. Format: biochemical. To be noted: M240R.
Text: as §3, §4

Experiment [5] concerns the target DYRK1A point mutants (Homo sapiens, UniProt Q13627, F238L/M240R). The description is as above. In kind it is biochemical. To be noted: F238LM240R.
Text: as §3, §4

The test system of experiment [6] is U87MG cells. The experiment can be described thus: Neurosphere proliferation assay, U87MG. In kind it is cell-based. To be noted: for proliferation of U87MG cells, assessed by neurosphere diameter: 5 μM, 10 μM, and 20 μM, compared to DMSO vehicle control; for neurosphere proliferation: U87MG DYRK1A knockouts rescued with point mutant F238LM240R, compared to DYRK1A wild-type treated cells; for neurosphere proliferation (neurosphere numbers and size): U87MG, serum free conditions with growth factors. As for the experimental part: as §1, §2
Compounds of Formula I therefore have an anticancer potential and inhibit proliferation of cells with a cancer phenotype.

Experiment [7] deals with LN229. The experiment can be described thus: Invasion assay (Matrigel), LN229. Format: cell-based. From the text: (§5) The Invasion Assay provides an in vitro system to study cell invasion of malignant and normal cells. Specific applications include assessment of the metastatic potential of tumor cells. Invasion chambers coated with Corning® Matrigel® matrix provide cells with the conditions that allow assessment of their invasive capacity in vitro. Corning Matrigel matrix serves as a reconstituted basement membrane in vitro, occluding the pores of the membrane and blocking non-invasive cells from migrating through the membrane. In contrast, invasive cells (malignant and non-malignant) secrete proteases that enzymatically degrade the Corning Matrigel matrix and enable invasion through the membrane pores.
(§6) In order to assess whether DYRK1A plays a role in cell invasion, we performed an invasion assay using the two GBM cell lines U87MG and LN229. […] Inhibition of DYRK1A using FC2 and FC3 can also decrease the metastatic potential of GBM cells, thus making them good therapeutic candidates for EGFR-dependent GBM.

Experiment [8] has as its system U87MG cells. The experiment can be described thus: Invasion assay (Matrigel), U87MG. In kind it is cell-based. To be noted: for ability of the cells to invade the Matrigel chamber / cell invasion (cells crossing matrigel membrane): U87MG; for invasion: U87MG DYRK1A knockouts rescued with point mutant F238LM240R, compared to DYRK1A wild-type treated cells; for cell invasion (cells crossing matrigel membrane): 5 μM and 10 μM, relative to DMSO vehicle.
Text: as §5, §6

In experiment [9] the target is panel of 140 different kinases. Description: Panel of 140 different kinases. Format: biochemical.

PIM1, sequence (P11309 whole entry): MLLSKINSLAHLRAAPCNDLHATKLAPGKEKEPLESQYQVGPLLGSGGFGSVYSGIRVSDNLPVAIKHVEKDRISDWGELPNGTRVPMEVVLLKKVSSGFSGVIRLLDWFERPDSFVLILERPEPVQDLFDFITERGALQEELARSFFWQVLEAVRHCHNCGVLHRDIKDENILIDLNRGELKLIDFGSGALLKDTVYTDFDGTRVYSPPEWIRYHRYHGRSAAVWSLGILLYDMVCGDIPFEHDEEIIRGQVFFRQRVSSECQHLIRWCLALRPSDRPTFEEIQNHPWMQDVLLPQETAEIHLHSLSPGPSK

Turning to `O=[N+]([O-])c1ccc(O)cc1-c1nc2cc3c(cc2s1)OCO3` [FC-115], the “PIM1 IC50 (nm)” value at PIM1 is on record as “No Inhibition”. In addition, the half-maximal inhibitory concentration (IC50) on DYRK1A was determined as 0.524 µM.

On to `COc1ccc(O)c2nc(C(=O)c3ccc(O)c(O)c3)sc12` [FC-7A, (3,4-dihydroxyphenyl)(4-hydroxy-7-methoxybenzo[d]thiazol-2-yl)methanone], for which the IC50 on DYRK1A turned out to be 0.56 µM.

Regarding `Oc1ccc(-c2nc3c(ccc4[nH]cnc43)s2)cc1O` [FC-14, 4-(6H-imidazo[4′,5′:5,6]benzo[1,2-d]thiazol-2-yl)benzene-1,2-diol], the IC50 at DYRK1A worked out at 0.4 µM.

In the case of `Oc1ccc(-c2nc3ccc4nn[nH]c4c3s2)cc1O` [FC-10, 4-(1H-thiazolo[5′,4′:3,4]benzo[1,2-d][1,2,3]triazol-7-yl)benzene-1,2-diol], the IC50 on DYRK1A is 0.11 µM.

Consider `COc1cc(O)c(C(=O)c2nc3cc(O)ccc3s2)cc1O` [FC-6, (2,5-Dihydroxy-4-methoxyphenyl)(5-hydroxybenzo[d]thiazol-2-yl)methanone], for which the half-inhibitory concentration (IC50) was 0.552 µM at PIM1 and 0.18 µM on DYRK1A.

As to `Oc1ccc(-c2nc3cc4cn[nH]c4cc3s2)cc1O` [FC-204, 4-(1H-thiazolo[4,5-f]-indazol-6-yl)benzene-1,2-diol], the IC50 at DYRK1A is 0.057 µM.

On to `O=C(c1ccc(O)c(O)c1)c1nc2c(O)ccc(O)c2s1` [FC-7, (4,7-Dihydroxybenzo[d]thiazol-2-yl)(3,4-dihydroxyphenyl)methanone], for which the “PIM1 IC50 (nm)” value at PIM1 is on record as “Micromolar inhibition”. In addition, on DYRK1A, the half-inhibitory concentration (IC50) came to 0.229 µM.

As for `COc1cc(O)c(C(=O)c2nc3cc(O)c(O)cc3s2)cc1O` [FC-4, (2,5-Dihydroxy-4-methoxyphenyl)(5,6-dihydroxybenzo[d]thiazol-2-yl)methanone], the IC50 was 0.174 µM at PIM1 and 0.087 µM at DYRK1A.

The molecule `O=C(c1nc2cc(O)c(O)cc2s1)c1cc(O)c(O)cc1O` [FC-63] returned an IC50 against PIM1 of 0.238 µM.

In the case of `O=C(c1ccc(O)c(O)c1)c1nc2cc(O)c(O)cc2s1` [FC-3, (5,6-Dihydroxybenzo[d]thiazol-2-yl)(3,4-dihydroxyphenyl)methanone], the “neurosphere proliferation (neurosphere numbers and size)” value in the experiment with LN229 [1] was “significant decrease in neurosphere proliferation”. In addition, on DYRK1A point mutants [2], the “IC50 against DYRK1A point mutant versus wild-type” value was “significantly higher”. For the same molecule, the “IC50 against DYRK1A point mutant versus wild-type” value against DYRK1A point mutants [3] is “significantly higher”. Also, the “IC50 against DYRK1A point mutant versus wild-type” value against DYRK1A point mutants [4] is “significantly higher”. The “IC50 against DYRK1A double mutant versus wild-type” value against DYRK1A point mutants [5] was “even higher”. In the experiment on U87MG cells [6], the “proliferation of U87MG cells, assessed by neurosphere diameter” value (shortened to “proliferation of U87MG cells, assessed”) is on record as “significantly inhibited proliferation”; the neurosphere proliferation entry is “did not show a decrease”; the “neurosphere proliferation (neurosphere numbers and size)” value is listed as “significant decrease in neurosphere proliferation”. Besides, the “ability of the cells to invade the Matrigel chamber” value (“ability of the cells” below) in the experiment with LN229 [7] was “impaired the ability of the cells to invade”. In addition, in the experiment with U87MG cells [8], the “ability of the cells” value was “impaired the ability of the cells to invade”, the invasion result was “did not show a decrease” and the “cell invasion (cells crossing matrigel membrane)” value was “significantly inhibited cell invasion; also recorded: reduces the invasive ability”. Besides, the kinase specificity entry in experiment [9] is “very specific to the DYRK family of kinases”. Moreover, the “PIM1 IC50 (nm)” value on PIM1 was “Micromolar inhibition”. Further, the IC50 on DYRK1A was 0.053 µM.

Turning to `Oc1cc2nc(-c3ccc(O)c(O)c3O)sc2cc1O` [FC-5], the figures for the IC50 at PIM1 and at DYRK1A were 0.144 µM and 0.095 µM, respectively.

Regarding `CCN1/C(=C/C(C)=O)Sc2ccc(O)cc21` [INDY, reference compound], the “proliferation of U87MG cells, assessed” value with U87MG cells [6] is given as “did not inhibit proliferation”.

As to `Oc1ccc(-c2nc3ccc4[nH]ncc4c3s2)cc1O` [FC-196, 4-(6H-thiazolo[5,4-e]indazol-2-yl)benzene-1,2-diol], the IC50 at DYRK1A came to 0.5 µM.

For `S=C1Cc2ccc(-c3nc4cc5c(cc4s3)OCO5)cc2N1` [FC-208], at DYRK1A, the IC50 was 0.56 µM.

For the molecule `COc1ccc(-c2nc3cc4cn[nH]c4cc3s2)cc1OC` [FC-205, 6-(3,4-dimethoxyphenyl)-1H-thiazolo[4,5-f]-indazole], the 50% inhibitory concentration (IC50) on DYRK1A was 0.206 µM.

As to `COc1ccc(C(=O)c2nc3cc(O)c(O)cc3s2)cc1F` [FC-8, (5,6-Dihydroxybenzo[d]thiazol-2-yl)(3-fluoro-4-methoxyphenyl)methanone], the IC50 came to 0.317 µM on PIM1 and 0.238 µM on DYRK1A.

Regarding `Oc1ccc(-c2nc3cc4c(cc3s2)OCO4)cc1O` [FC-2, 4-([1,3]Dioxolo[4′,5′:4,5]benzo[1,2-d]thiazol-6-yl)benzene-1,2-diol], the “neurosphere proliferation (neurosphere numbers and size)” value in the experiment with LN229 [1] is “significant decrease in neurosphere proliferation”. In addition, the “IC50 against DYRK1A point mutant versus wild-type” value at DYRK1A point mutants [2] was “significantly higher”. Moreover, the “IC50 against DYRK1A point mutant versus wild-type” value against DYRK1A point mutants [4] is on record as “significantly higher”. Also, the “IC50 against DYRK1A double mutant versus wild-type” value against DYRK1A point mutants [5] is listed as “even higher”. Further, in the experiment on U87MG cells [6], the “proliferation of U87MG cells, assessed” value is on record as “significantly inhibited proliferation”; the neurosphere proliferation result is given as “did not show a decrease”; the “neurosphere proliferation (neurosphere numbers and size)” value is recorded as “significant decrease in neurosphere proliferation”. Moreover, the “ability of the cells” value with LN229 [7] is given as “impaired the ability of the cells to invade”. In addition, in the experiment on U87MG cells [8], the “ability of the cells” value is given as “impaired the ability of the cells to invade”, the invasion result was “did not show a decrease” and the “cell invasion (cells crossing matrigel membrane)” value is recorded as “significantly inhibited cell invasion; also recorded: reduces the invasive ability”. For the same molecule, the kinase specificity entry in experiment [9] is “very specific to the DYRK family of kinases”. Also, the “PIM1 IC50 (nm)” value on PIM1 is listed as “Micromolar inhibition”. Further, the half-maximal inhibitory concentration (IC50) at DYRK1A worked out at 0.019 µM.
